{
  "source": "paper PMC5907308",
  "about": "“21st Brazilian Diabetes Society Congress” (Diabetology & Metabolic Syndrome, 2018)",
  "key": {"pregnancies": {"system": "pregnancies", "conditions": "general population: 3-4%; no reference given; cited from earlier work", "excerpt": "Discussion: In transplanted pregnant women, hypertension and DM increase the risk of prematurity, restricted intrauterine growth (IUGR) and graft loss. […] In addition, there is a higher rate of small newborns for GI. […] As for immunosuppressants, there are few reports. Tacrolimus appears safe (prevalence of congenital malformations: 4-5% ..."}, "[1]": {"system": "patients submitted to liver transplantation", "type": "in vivo, human", "conditions": "Tacrolimus 95% CI 1.2–32.5, p = 0.029; PDN 95% CI 2.4–21, 8, p < 0.001", "excerpt": "A total of 152 patients were included. […] Comparisons were done with Chi square tests and analysis of independent risk factors with multivariate logistic regression."}, "[2]": {"system": "patients with diabetic dyslipidemia", "conditions": "fenofibrate in combination with simvastatin, subgroup with diabetic dyslipidemia; ref [1]; cited from earlier work"}, "[3]": {"system": "patient with DM1 and suspected hyporeninemic hypoaldosteronism", "experiment": "Case report: fludrocortisone therapeutic test", "type": "in vivo, human", "conditions": "fludrocortisone 0.2 mg/day", "procedure": "Case presentation: A person, diagnosed with type 1 diabetes mellitus (DM1) for 12 years, presented progressive of walking difficulties 5 years ago, associated with dizziness, weakness, and tachycardia at rest with hypotension. […] Neuropathy Disability Score (NDS) was carried out, presenting 10 out of 10 points, classified as severe impairment. Because of an extremely significant clinical condition, with no evidence of microvascular compromise, hyporeninemic hypoaldosteronism (HH) was investigated. […] Subsequently, the patient was exposed to the exogenous ACTH test, with the administration of ACTH 250mcg intravenous and dosages of serum cortisol and aldosterone at times 0‘, 30‘, 60‘. There was an elevation of serum cortisol to levels above the limit of normality (18 mcg/dL), discarding primary adrenal insufficiency, and aldosterone levels at the lower limit of normal (attached tables). Even tests without confirmation, the use of fludrocortisone 0.2 mg/day was started as a therapeutic test."}, "patient": {"system": "patient", "experiment": "Neonatal diabetes, therapeutic test with sulfonylurea, case report", "type": "in vivo, human", "conditions": "oral, gradual elevation, insulin suspended; discharged on 20 mg/day", "procedure": "Case presentation: A patient, presenting hypoactivity, sialorrhea and seizures 2 days ago, was admitted to a university hospital. During hospitalization they were evaluated by neurology that identified a discrete delay in neuropsychomotor development. […] Serologies for toxoplasmosis, rubella and measles negative. History of maternal varicella during gestation. […] Due to the delay in carrying out a genetic study to close the diagnosis, material was collected and sent to the genetic service and prescribed sulfonylurea (glibenclamide) as a therapeutic test. The oral medication was initiated in low doses with gradual elevation, and progressive reduction of the insulin until its suspension. […] They were discharged from the hospital using glibenclamide 20 mg/day. The patient is in outpatient follow-up at the endocrinology department of the João de Barros Barreto University Hospital. Endocrinology work team is still waiting for genetic analysis."}, "[4]": {"system": "patient with diffuse cutaneous leishmaniasis", "conditions": "side effect, literature; no reference given; cited from earlier work"}, "[5]": {"system": "patient with diffuse cutaneous leishmaniasis", "experiment": "Pentamidine-induced diabetes mellitus, case report", "type": "in vivo, human", "procedure": "Case report: Patient two, diagnosis of diffuse cutaneous leishmaniasis in treatment since 1995 without therapeutic response after several treatments. Regular follow up with infectology, in maintenance treatment with miltefosine and in treatment with pentamidine every 30 days from January 2017, with a marked improvement of cutaneous lesions. During the follow-up, in consultation in July 2017, they complained of weight loss, polydipsia and nocturia, with serum glycemia of 901 mg/dL. Patient was referred to the hospital where they were diagnosed with a non-ketosis hyperosmolar state, with tests showing serum osmolarity of […] and glycated hemoglobin 10.31%. During hospitalization and after discharge maintained insulin use for glycemic control. Treatment of leishmaniasis with pentamidine was discontinued and will keep following-up with infectology and endocrinology."}, "[6]": {"system": "patient with squamous cell carcinoma of the hypopharynx", "experiment": "Autoimmune diabetes after Nivolumab therapy, case report (A402)", "type": "in vivo, human", "conditions": "anti-GAD and anti-ICA positive", "excerpt": "Case report: A patient with diagnosis of squamous cell carcinoma of the hypopharynx and pulmonary metastasis 2 years ago, after a failed treatment with conventional chemotherapy and radiotherapy, started a new class of cancer medication called Nivolumab—human immunoglobulin G4 monoclonal antibody. […] Investigation about the cause of the onset of diabetes founded positivity for diabetes antibodies, anti-GAD and anti-ICA, confirming autoimmune diabetes. Patient has been on intensive insulin therapy since then, with difficult glycemic control due to great glycemic variability."}, "[7]": {"system": "patient with metastatic lung adenocarcinoma", "experiment": "New-onset diabetes on Nivolumab, case report (A288)", "type": "in vivo, human", "procedure": "Case report: A patient was started on Nivolumab infusions every 15 days after chemotherapy refractory progressive metastatic lung adenocarcinoma, with no prior history of diabetes. After 4 infusions, they experienced xerostomia, polyuria, polydipsia and asthenia. Upon emergency evaluation, they were started on I.V. insulin after a capillary glycemia of 600 mg/dL. They were discharged home with 10 units of NPH insulin bedtime, with a referral to the endocrinologist. […] Insulin was titrated for a total daily dose of 0.5 UI/kg. […] Nivolumab was withdrawn and no glycemic improvement nor insulin dose reductions were noted."}, "[8]": {"system": "subjects with T2D inadequately controlled on IGlarU100 and metformin", "experiment": "DUAL V 26-week open-label treat-to-target trial", "type": "in vivo, human"}, "[9]": {"system": "patients with T2DM uncontrolled on oral antidiabetic agents", "experiment": "LixiLan-O, time to glycemic control (Kaplan–Meier), post hoc", "type": "in vivo, human", "conditions": "LL-O", "procedure": "The Kaplan–Meier method was used to estimate time to control, defined as time (days) to first achieve HbA1c < 7% or FPG ≤ 130 mg/dL. […] In addition to lowering FPG via iGlar, iGlarLixi lowers PPG, likely contributing to its greater efficacy in achieving glycemic control vs. iGlar alone. […] Study codes: NCT02058160 and NCT02058147. This is an ENCORE abstract previously presented at ADA 2017. Funding and editorial support provided by Sanofi (Fig. 1)"}, "[10]": {"system": "elderly patients with T2DM", "experiment": "Pilot randomized trial Ideg vs Iglar-U100 with CGM", "type": "in vivo, human", "procedure": "Methods: It is a pilot study with ten patients during six weeks, randomized, prospective, controlled and open label trial. Inclusion criteria: T2DM, age over 60 years, A1C from 7 to 10%, use of NPH insulin with or without oral antidiabetic drugs. […] They were evaluated for glucose variability (GV) and HYPOs by continuous glucose monitoring (CGM) after 2 weeks of treatment with either insulin."}},
  "data": [
    {"molecule": "C=CC[C@@H]1/C=C(\\C)C[C@H](C)C[C@H](OC)[C@H]2O[C@@](O)(C(=O)C(=O)N3CCCC[C@H]3C(=O)O[C@H](/C(C)=C/[C@@H]3CC[C@@H](O)[C@H](OC)C3)[C@H](C)[C@@H](O)CC1=O)[C@H](C)C[C@@H]2OC", "note": "[Tacrolimus]", "values": [
      {"measurement": "prevalence of congenital malformations", "setting": "pregnancies", "result": "4-5%"},
      {"measurement": "independent risk factor for PTDM, OR", "setting": "[1]", "result": 6.3}
    ]},
    {"molecule": "CC(C)OC(=O)C(C)(C)Oc1ccc(C(=O)c2ccc(Cl)cc2)cc1", "note": "[fenofibrate]", "values": [
      {"measurement": "primary outcomes reduced compared to placebo", "setting": "[2]", "result": "about 30%"}
    ]},
    {"molecule": "C[C@]12CCC(=O)C=C1CC[C@H]1[C@@H]3CC[C@](O)(C(=O)CO)[C@@]3(C)C[C@H](O)[C@@]12F", "note": "[fludrocortisone]", "values": [
      {"measurement": "clinical course", "setting": "[3]", "result": "improvement of the blood pressure (BP) and dizziness"}
    ]},
    {"molecule": "COc1ccc(Cl)cc1C(=O)NCCc1ccc(S(=O)(=O)NC(=O)NC2CCCCC2)cc1", "note": "[glibenclamide]", "values": [
      {"measurement": "clinical evolution", "setting": "patient", "result": "good glycemic control and improved neurological symptoms"}
    ]},
    {"molecule": "N=C(N)c1ccc(OCCCCCOc2ccc(C(=N)N)cc2)cc1", "note": "[pentamidine]", "values": [
      {"measurement": "hyperglycemia reported, cases", "setting": "[4]", "result": "1-5%"},
      {"measurement": "glycated hemoglobin", "setting": "[5]; in vivo", "result": 10.31, "unit": "%"},
      {"measurement": "serum osmolarity", "setting": "[5]; non-ketosis hyperosmolar state", "result": 306, "unit": "mOsm/L"},
      {"measurement": "serum glycemia", "setting": "[5]; pentamidine every 30 days from January 2017, July 2017", "result": 901, "unit": "mg/dL"}
    ]},
    {"molecule": "Nivolumab", "values": [
      {"measurement": "presentation after the third cycle", "setting": "[6]", "result": "hyperglycemia, polyuria and polydipsia"},
      {"measurement": "capillary glycemia", "setting": "[7]; after 4 infusions, every 15 days", "result": 600, "unit": "mg/dL"},
      {"measurement": "C-peptide", "setting": "[7]; in vivo", "result": 0.34, "unit": "ng/dL"},
      {"measurement": "possible adverse event", "setting": "[7]; in vivo", "result": "New-onset diabetes presenting with Diabetic Ketoacidosis and low levels of Cpeptide"}
    ]},
    {"molecule": "insulin glargine [Gla-100]", "values": [
      {"measurement": "mean fasting SMBG after 26 weeks", "setting": "[8]; NS", "result": 5.6, "unit": "mmol/L"},
      {"measurement": "Mean HbA1c after 26 weeks of treatment", "setting": "[8]; in vivo", "result": 7.1, "unit": "%"},
      {"measurement": "Mean HbA1c, baseline", "setting": "[8]; in vivo", "result": 8.2, "unit": "%"},
      {"measurement": "Days to first HbA1c <7%, median", "setting": "[9]", "result": 166.0, "unit": "days"},
      {"measurement": "24-h mean glucose, median (minimum–maximum)", "setting": "[10]; CGM after 2 weeks, n = 5 per group, P = 0.84", "result": "169 (138–193) mg/dL"},
      {"measurement": "standard deviation from the mean glucose, median (minimum–maximum)", "setting": "[10]; CGM, P = 0.22", "result": "45 (41–66)"}
    ]}
  ]
}
